According to patent publication US8841285B2, “Potent immunosuppressive agents, derivatives and uses” (priority 2002, dated 2014):
Where two headings read alike, the source gives them in different places.

Legend:
[1] = system: protein synthesis in HeLa S3 cells; test: metabolic labelling, protein synthesis ([35S]-methionine/cysteine); type: cell-based
Protocol: (§1) Metabolic Labelling. About 5000 HeLa S3 cells per well in 96-well plates were cultured overnight in duplicate. One set of plates were washed twice with, then incubated for 20 min in Met and Cys free medium, then exchanged for labeling medium (RPMI 1640 with 10% FBS dialyzed in PBS overnight, and 0.15 mCi/ml [^35S]-Met and [^35S]-Cys) with indicated compounds and final volume of 100 μl per well. After 1 h or 3 h incubation, and two washes with ice-cold PBS, cells were lysed in RIPA buffer, under agitation for 30 min at 4° C. 5 μl of lysate from each well was combined with 25 μl of 1 mg/ml BSA, and added to 96 well plates, followed by addition of 150 μl of 5% TCA in ethanol and incubated at 4° C. for 30 min. Filtration was performed on a vacuum manifold as per manufacturer's instructions with 2 washes of 5% TCA in ethanol, then twice with 100% ethanol. After air-drying, scintillation counting was performed. For the second set, replacement media contained […] [^3H]-uridine and indicated compound, and incubated for 1 or 3 h. Remaining procedure was identical to cell proliferation assay.

[2] = system: RNA synthesis in HeLa S3 cells; test: metabolic labelling, RNA synthesis ([3H]-uridine); type: cell-based
Protocol: as §1

[3] = system: IL-2 promoter luciferase reporter in stimulated Jurkat T cells; test: IL-2 reporter gene assay (transfected Jurkat cells); type: cell-based
Protocol: The ability of these derivatives to inhibit T cell receptor-mediated IL-2 production was analyzed using an IL-2 reporter gene assay. In this assay, a plasmid encoding a reporter gene (luciferase) under the control of the IL-2 promoter was first introduced into Jurkat T cells by transfection. The transfected Jurkat T cells are then stimulated with two pharmacological agents, phorbol myristyl acetate (PMA), which activates protein kinase C, and inonmycin, which allows calcium ion to enter T cells to activate calmodulin and calcineurin. Together, PMA and ionomycin recapitulate T cell receptor signaling, leading to the activation of the luciferase reporter gene by activating the IL-2 promoter. The ability of PatA and its analogs to block T cell receptor-mediated IL-2 expression was measured by their effects on this reporter gene assay. Su, B., et a., Cell 1994, 77, 727-736.

[4] = molecular target: T1, eIF4A-eIF4B (Homo sapiens, UniProt P60842); test: 6XHis-eIF4AI pulldown, eIF4A-eIF4B interaction; type: binding; conditions: HeLa lysate; PatA at 100 μM
T1 construct: The entire ORF of human eIF4AI was ligated in-frame into the BamHI and HindIII sites of the pET-28a expression vector; made in house; host or cells: bait from E. coli BL21(DE3); eIF4B endogenous in HeLa lysate
Protocol: 6XHis-eIF4AI pulldown, Co-immunoprecipitation, and m^7GTP-Sepharose pulldown. For 6XHis-eIF4AI pulldowns, HeLa lysates were prepared as described above. Equal aliquots (200 μl) of lysate were incubated with PatA analogs or DMSO and 8.5 μg of 6XHis-eIF4AI overnight at 4° C., followed by addition of Ni-NTA resin for 1 h, then resin was washed with 3 ml buffer, and boiled in SDS-PAGE loading buffer followed by SDS-PAGE and immunoblotting with indicated antibodies. For co-immunoprecipitation, 293T cells with vector control or pcDNA3-Flag-4B lysates were prepared by pipetting in: 20 mM HEPES, pH 7.4, 100 mM KCl, 0.5% Triton-X-100, 20% glycerol, protease inhibitor and 15 μg/ml RNAse A followed by clearing at 13 000 g (10 min). For DMDA-PatA treated samples, lysis and wash buffers also contained 100 nM DMDA-PatA. Anti-Flag antibody was incubated overnight at 4° C., followed by addition of Protein G beads for 4 h. Beads were washed 3× with 500 μl buffer, boiled in SDS-PAGE loading buffer followed by SDS-PAGE and immunoblotting. m^7GTP-Sepharose was performed as described (Yoder-Hill et al., 1993) with modifications. 30 μl RRL was incubated with DMSO or DMDA-PatA at room temperature for 30 min, diluted with buffer supplemented with DMSO or DMDA-PatA (20 nM), then combined with 50 μl beads for 3 h at 4° C. followed by 4 washes with 1 ml buffer. […]

[5] = system: cancer cell lines; test: cell proliferation assay ([3H]-thymidine incorporation), cancer cell lines; type: cell-based
Protocol: Cell Proliferation Assay. 1×10^5 of indicated cells in each well of a 96-well plate were treated with indicated compounds for 24 h followed by addition of 0.11 μCi of [^3H]-thymidine (6.7 Ci/mmol) per well for 6 h, followed by harvesting to GF/C filtermats using a cell harvester. Filtermats were air-dried and scintillation counted. IC50s were determined from quadruplicate data readings and curve-fitting analysis.

[6] = system: skin graft; conditions: cited from earlier work
[7] = molecular target: T2, eIF4A (Homo sapiens, UniProt P60842); test: B-PatA streptavidin pull-down competition; type: binding; conditions: RKO cell lysate, pre-incubation with competitor
T2 construct: Cell lysates from RKO cells were prepared as previously described; endogenous in cells; host or cells: RKO cell lysate
Protocol: Streptavidin-agarose Pulldown with B-PatA. Cell lysates from RKO cells were prepared as previously described (Griffith et al., 1997). HeLa lysates were prepared in buffer: 10 mM HEPES-OH, pH 7.6, 10 mM KC2H3O2, and 0.5 mM MgC2H3O2. RRL and WGE were diluted about 12 fold using HeLa lysate buffer. All pulldowns included protease inhibitors. Streptavidin-beads were pre-incubated with 10 mg/ml BSA in buffer for 1 h at 4° C. with mixing. Equal aliquots of lysate (200 μl) were incubated with DMSO or PatA analog for 1 h at 4° C. with mixing, followed by addition of DMSO or B-PatA and incubation for 2 h. Each sample was combined with equal amounts of pre-blocked beads and incubated for 1 h at 4° C. Beads were washed with 3 ml of buffer, boiled in SDS-PAGE loading buffer and analyzed by SDS-PAGE and silver-staining or immunoblotting.

[8] = stability in CDCl3; type: physicochemical; conditions: CDCl3, 25° C.

T2 sequence (P60842 2-406): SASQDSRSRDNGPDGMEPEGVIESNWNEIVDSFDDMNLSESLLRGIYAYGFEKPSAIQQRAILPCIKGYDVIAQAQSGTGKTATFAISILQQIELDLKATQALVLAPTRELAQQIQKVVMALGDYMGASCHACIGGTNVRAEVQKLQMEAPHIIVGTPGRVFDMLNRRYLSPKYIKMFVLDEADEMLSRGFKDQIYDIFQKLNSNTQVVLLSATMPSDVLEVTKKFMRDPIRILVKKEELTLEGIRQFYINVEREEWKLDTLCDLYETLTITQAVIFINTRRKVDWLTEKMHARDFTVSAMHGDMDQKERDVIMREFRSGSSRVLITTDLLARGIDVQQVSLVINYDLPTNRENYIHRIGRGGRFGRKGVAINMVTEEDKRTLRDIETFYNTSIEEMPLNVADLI
T1 sequence (P60842 whole entry): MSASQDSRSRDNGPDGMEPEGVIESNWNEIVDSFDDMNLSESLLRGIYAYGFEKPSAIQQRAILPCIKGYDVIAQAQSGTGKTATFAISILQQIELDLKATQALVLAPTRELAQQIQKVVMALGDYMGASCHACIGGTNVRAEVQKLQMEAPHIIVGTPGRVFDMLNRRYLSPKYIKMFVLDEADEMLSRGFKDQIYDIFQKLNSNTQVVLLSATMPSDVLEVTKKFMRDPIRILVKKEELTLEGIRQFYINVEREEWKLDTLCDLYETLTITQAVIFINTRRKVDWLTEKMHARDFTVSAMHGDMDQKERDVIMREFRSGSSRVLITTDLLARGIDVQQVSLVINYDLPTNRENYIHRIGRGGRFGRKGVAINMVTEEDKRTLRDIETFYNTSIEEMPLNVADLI
T1 sequence (P23588 whole entry partner): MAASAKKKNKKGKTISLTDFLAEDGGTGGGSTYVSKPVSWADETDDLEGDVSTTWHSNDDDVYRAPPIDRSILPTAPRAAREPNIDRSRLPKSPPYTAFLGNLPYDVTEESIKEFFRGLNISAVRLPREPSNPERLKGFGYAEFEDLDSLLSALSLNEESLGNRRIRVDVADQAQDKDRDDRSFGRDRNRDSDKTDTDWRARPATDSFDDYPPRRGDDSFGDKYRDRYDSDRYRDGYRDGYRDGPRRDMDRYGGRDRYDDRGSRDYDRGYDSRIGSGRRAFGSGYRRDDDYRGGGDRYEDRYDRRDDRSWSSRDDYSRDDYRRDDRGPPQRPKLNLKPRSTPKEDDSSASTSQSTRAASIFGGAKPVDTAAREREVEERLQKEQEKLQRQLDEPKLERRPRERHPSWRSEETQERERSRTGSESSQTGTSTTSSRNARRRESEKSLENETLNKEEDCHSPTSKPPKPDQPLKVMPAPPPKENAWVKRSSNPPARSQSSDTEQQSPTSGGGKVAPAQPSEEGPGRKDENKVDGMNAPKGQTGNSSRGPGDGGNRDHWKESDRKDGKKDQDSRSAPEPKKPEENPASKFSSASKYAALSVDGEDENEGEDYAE

SMILES | IC50 ([1]; 1 h treatment, read-out: IC50, inhibition of protein synthesis) | effect on RNA synthesis [2] | IC50 ([3]; stimulated Jurkat T cells, listed as native pateamine A, read-out: IC50, inhibition of IL-2 production / IL-2 reporter gene) | IC50 ([3]; stimulated Jurkat T cells, read-out: IC50, inhibition of IL-2 production / IL-2 reporter gene) | effect on eIF4A-eIF4B interaction [4] | IC50 ([5]; all cancer cell lines (FIG. 12), read-out: IC50, inhibition of proliferation) | activity in skin graft rejection assay ([6]; all doses) | toxicity ([6]; at high doses) | survival period of the skin graft ([6]; mouse skin graft rejection) | toxicity ([6]; other dose levels) | competition with B-PatA for eIF4A binding [7] | decomposes in CDCl3 [8] | effect on protein synthesis [1] | IC50 ([3]; stimulated Jurkat T cells, listed as DMDA PatA 3, read-out: IC50, inhibition of IL-2 production / IL-2 reporter gene) | IC50 ([3]; stimulated Jurkat T cells, listed as DMDA PatA, read-out: IC50, inhibition of IL-2 production / IL-2 reporter gene) | IC50 ([3]; transfected Jurkat cells, same population of Jurkat T cells, read-out: IC50) | activity in cell proliferation assays [5] | stable in CDCl3 [8]
CC(/C=C/C(C)=C/[C@@H]1Cc2nc(cs2)[C@@H](C)C[C@@H](N)CC(=O)O[C@@H](C)C/C(C)=C/C=C\C(=O)O1)=C\CN(C)C [Pat A (1), Pateamine A] | 3.3 nM | inhibitory effect on RNA synthesis | 4.01 ± 0.94 nM | 4 ± 0.9 nM | increase in amount of eIF4B observed | < 1 nM | All doses were active | 17% | 15 days | no toxicity | effectively competed away | < 10 min | – | – | – | – | – | –
CC(/C=C/C(C)=C/[C@@H]1Cc2nc(cs2)CCCCC(=O)O[C@@H](C)C/C(C)=C/C=C\C(=O)O1)=C\CN(C)C [compound 3, desmethyl, desamino-pateamine A] | – | secondary effect on RNA synthesis | – | – | enhancement of eIF4A-eIF4B interaction | – | – | – | – | – | competitive | – | inhibited protein synthesis | 0.8 ± 0.3 nM | 0.81 ± 0.27 nM | 0.808 nM | retain most of the activity of PatA | 3-4 weeks
